From patent publication US20230103631A1, “PEPTIDES AS SELECTIVE GIP RECEPTOR AGONISTS” (Sanofi, priority 2020, published 2023)
*1 amine or outer side, *2 acyl side, *3 side chain or, on linkers, in order; H or OH if unused. Where a SMILES comes first, the peptide text is derived from it. Side-chain parts run from the residue outwards. [ ]: non-standard residue; d: D form. The star is where a group is joined. C18 diacid = O=C(O)CCCCCCCCCCCCCCCCC(=O)*; γGlu = O=C(O)[C@H](CCC(=O)[*:2])N[*:1]; AEEA = NCCOCCOCC(=O)O; Aib = CC(C)(N)C(=O)O

Key:
[1] = target: T1, human GIP receptor (hGIPR) (Homo sapiens, UniProt P48546); assay: Binding assay, displacement of [125I]GIP from HEK-293 membranes expressing GIPR; conditions: [125I]GIP displacement
T1 sequence (P48546 22-466): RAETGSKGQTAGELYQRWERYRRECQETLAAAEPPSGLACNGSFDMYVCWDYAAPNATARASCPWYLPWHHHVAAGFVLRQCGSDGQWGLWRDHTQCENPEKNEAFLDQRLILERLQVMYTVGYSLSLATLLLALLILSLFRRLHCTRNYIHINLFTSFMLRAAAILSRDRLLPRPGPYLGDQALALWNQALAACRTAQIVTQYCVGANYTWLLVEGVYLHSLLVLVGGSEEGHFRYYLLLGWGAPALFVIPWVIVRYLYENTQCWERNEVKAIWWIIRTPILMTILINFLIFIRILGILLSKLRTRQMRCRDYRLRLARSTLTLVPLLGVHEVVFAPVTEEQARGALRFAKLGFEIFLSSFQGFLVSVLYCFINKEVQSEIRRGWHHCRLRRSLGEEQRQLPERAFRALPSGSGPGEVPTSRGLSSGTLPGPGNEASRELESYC
Protocol: HEK-293 cells recombinantly over-expressing GIPR or GLP-1R were grown to 50% confluency, washed with warm 1×PBS (Gibco) and detached in HEPES/EDTA-buffer (100 mM HEPES pH 7.5, 5 mM EDTA). Cells were harvested by centrifugation at 4° C. and 3000×g and the pellets were stored at −80° C. until further processing.
After thawing on ice, pellets were resuspended in HEPES/EDTA-buffer and homogenized on ice for 1 min using Ultra-Turray T25. After subsequent sonification the cell debris was removed by centrifugation at 1000×g and 4° C. Supernatants were then ultra-centrifuged at 100000×g and 4° C. under vacuum for 30 min. Pellets were resuspended in HEPES/EDTA/NaCl-buffer (20 mM HEPES, 1 mM EDTA, 150 mM NaCl; add 1 Complete Mini Protease inhibitor cocktail to 10 ml buffer) and protein content was determined via BCA-Protein assay.

[2] = Dynamic light scattering (DLS) for the assessment of physical stability; type: physicochemical
Excerpt: A monochromatic and coherent light beam (laser) is used to illuminate the liquid sample. Dynamic Light Scattering (DLS) measures light scattered from particles (1 nm≤radius≤1 μm) that undergo Brownian motion. This motion is induced by collisions between the particles and solvent molecules, that themselves are moving due to their thermal energy. The diffusional motion of the particles results in temporal fluctuations of the scattered light (R. Pecora, Dynamic Light Scattering: Applications of Photon Correlation Spectroscopy, Plenum Press, 1985).
The scattered light intensity fluctuations are recorded and transformed into an autocorrelation function. By fitting the autocorrelation curve to an exponential function, the diffusion coefficient D of the particles in solution can be derived. The diffusion coefficient is then used to calculate the hydrodynamic radius Rh (or apparent Stokes radius) through the Stokes-Einstein equation assuming spherical particles. This calculation is defined in ISO 13321 and ISO 22412 (International Standard ISO13321 Methods for Determination of Particle Size Distribution Part 8: Photon Correlation Spectroscopy, International Organisation for Standardisation (ISO) 1996; International Standard ISO22412 Particle Size Analysis—Dynamic Light Scattering, International Organisation for Standardisation, 2008).
In case of polydisperse samples, the autocorrelation function is the sum of the exponential decays corresponding to each of the species. The temporal fluctuations of the scattered light can then be used to determine the size distribution profile of the particle fraction or family. The first order result is an intensity distribution of scattered light as a function of the particle size. The intensity distribution is naturally weighted according to the scattering intensity of each particle fraction or family. For biological materials or polymers, the particle scattering intensity is proportional to the square of the molecular weight. Thus, small amount of aggregates/agglomerates or presence or a larger particle species can dominate the intensity distribution. However, this distribution can be used as a sensitive detector for the presence of large material in the sample.
The DLS technique produces distributions with inherent peak broadening. The polydispersity index % Pd is a measure of the width of the particle size distribution and is calculated by standard methods described in ISO13321 and ISO22412 [International Standard ISO13321 Methods for Determination of Particle Size Distribution Part 8: Photon Correlation Spectroscopy, International Organisation for Standardisation (ISO) 1996; International Standard ISO22412 Particle Size Analysis—Dynamic Light Scattering, International Organisation for Standardisation (ISO) 2008].
Solutions from solid samples were prepared in buffer systems (see below) with a target concentration of 300 μM compound based on the previously determined % purity.
DLS buffer system A) 20 mM phosphate buffer pH 7.4
DLS buffer system B) 8 mM phosphate buffer pH 7.4, 14 mg/ml propylene glycol, 5.5 mg/ml phenol
DLS buffer system C) 100 mM phosphate buffer pH 7.4, 2.7 mg/ml m-cresol Solutions were filtered through 0.22 μm pore size and filled into sterilized glass containers under laminar flow conditions. For every peptide solution, the apparent hydrodynamic radius (Rh), the corresponding Scattering Intensity (I), and the Mass Contribution (M) were determined as an average over 3-6 replicates from the intensity distribution of the scattered light averaging only high-quality measurements. Relative standard deviations (RSD) for these parameters were calculated from the same number of replicates. […]

[3] = target: human GLP-1 receptor (hGLP-1R) (Homo sapiens, UniProt P43220); assay: cAMP HTRF assay, HEK-293 cell line over-expressing human GLP-1 receptor; type: cell-based; conditions: HEK-293, cAMP, 0% HSA
Chain of human GLP-1 receptor (hGLP-1R) (P43220 24-463): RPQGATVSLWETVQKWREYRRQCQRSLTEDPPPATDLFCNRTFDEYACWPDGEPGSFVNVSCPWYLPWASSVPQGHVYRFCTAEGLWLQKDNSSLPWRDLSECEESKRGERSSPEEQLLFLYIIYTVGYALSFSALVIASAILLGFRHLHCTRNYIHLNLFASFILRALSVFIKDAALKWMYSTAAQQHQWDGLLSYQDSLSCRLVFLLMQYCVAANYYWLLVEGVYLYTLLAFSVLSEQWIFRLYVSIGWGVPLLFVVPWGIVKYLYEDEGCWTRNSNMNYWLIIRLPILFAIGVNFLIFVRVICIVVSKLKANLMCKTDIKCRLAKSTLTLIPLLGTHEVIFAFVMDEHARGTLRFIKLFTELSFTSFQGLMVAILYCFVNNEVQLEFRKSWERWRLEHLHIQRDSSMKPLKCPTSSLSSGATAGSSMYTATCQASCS
Protocol: Each vial contained 1.8 ml cells. The vials were slowly frozen to −80° C. in isopropanol, and then transferred in liquid nitrogen for storage.
Prior to their use, frozen cells were thawed quickly at 37° C. and washed (5 min at 900 rpm) with 20 ml cell buffer (1× HBSS; 20 mM HEPES, plus 0.1% HSA if indicated in Example conditions).
For measurement of cAMP generation, 5 μl cells (final 5000 cells/well) and 5 μl of test compound were added to a 384-well plate, followed by incubation for 30 min at room temperature.
The cAMP generated was determined using a kit from Cisbio Corp. based on HTRF (Homogenous Time Resolved Fluorescence). The cAMP assay was performed according to manufacturer's instructions (Cisbio).

[4] = DLS buffer system A, 4 weeks storage at 40° C.
[5] = DLS buffer system B (phenol), 0 weeks
[6] = DLS buffer system B (phenol), 4 weeks storage at 40° C.

| SMILES | IC50 [1] [nM] | I and SD (Scattering Intensity) ([2]; DLS buffer system A, 0 weeks) [%] | M and SD (Mass Contribution) ([2]; DLS buffer system A, 0 weeks) [%] | apparent Rh and SD ([2]; DLS buffer system A, 0 weeks) [nm] | I and SD (Scattering Intensity) [2, 4] [%] | M and SD (Mass Contribution) [2, 4] [%] | apparent Rh and SD [2, 4] [nm] | EC50 [3] [nM] | I and SD (Scattering Intensity) [2, 5] [%] | M and SD (Mass Contribution) [2, 5] [%] | apparent Rh and SD [2, 5] [nm] | I and SD (Scattering Intensity) [2, 6] [%] | M and SD (Mass Contribution) [2, 6] [%] | apparent Rh and SD [2, 6] [nm] |
| --- | --- | --- | --- | --- | --- | --- | --- | --- | --- | --- | --- | --- | --- | --- |
| CC[C@H](C)[C@H](NC(=O)[C@H](CCCNC(=N)N)NC(=O)[C@H](CC(=O)O)NC(=O)[C@H](CCCCNC(=O)COCCOCCNC(=O)COCCOCCNC(=O)CC[C@H](NC(=O)CCCCCCCCCCCCCCCCC(=O)O)C(=O)O)NC(=O)C(C)(C)NC(=O)[C@@H](NC(=O)[C@H](CO)NC(=O)[C@H](CC(C)C)NC(=O)[C@H](CC(=O)O)NC(=O)[C@H](CO)NC(=O)[C@@H](NC(=O)[C@H](Cc1ccccc1)NC(=O)[C@@H](NC(=O)CNC(=O)[C@H](CCC(=O)O)NC(=O)C(C)(C)NC(=O)[C@@H](N)Cc1ccc(O)cc1)[C@@H](C)O)[C@@H](C)CC)[C@@H](C)CC)C(=O)N[C@@H](Cc1c[nH]cn1)C(=O)N[C@@H](CCC(N)=O)C(=O)NC(C)(C)C(=O)N[C@@H](CCC(=O)O)C(=O)N[C@@H](Cc1ccccc1)C(=O)N[C@H](C(=O)N[C@@H](CCC(=O)O)C(=O)N[C@@H](Cc1c[nH]c2ccccc12)C(=O)N[C@@H](CC(C)C)C(=O)N[C@@H](CC(C)C)C(=O)N[C@@H](C)C(=O)N[C@@H](CCC(N)=O)C(=O)NCC(=O)N1CCC[C@H]1C(=O)N[C@@H](CO)C(=O)N[C@@H](CO)C(=O)NCC(=O)N[C@@H](C)C(=O)N1CCC[C@H]1C(=O)N1CCC[C@H]1C(=O)N1CCC[C@H]1C(=O)N[C@@H](CO)C(N)=O)[C@@H](C)CC [SEQ ID NO: 4, H2N-Y-Aib-E-G-T-F-I-S-D-I-S-I-Aib-K[{AEEA}2-gGlu-C18OH]-D-R-I-H-Q-Aib-E-F-I-E-W-I-L-A-Q-G-P-S-S-G-A-P-P-P-S-NH2] (H-Y[Aib]EGTFISDLSI[Aib]K([AEEA-AEEA-γGlu-C18 diacid])DRIHQ[Aib]EFIEWLLAQGPSSGAPPPS-NH2) | 0.2 | 93 ± 1 | 100 ± 0 | 1.91 ± 0.05 | 93 ± 1 | 100 ± 0 | 1.9 ± 0.04 | > 10 |  |  |  |  |  |  |
| CC[C@H](C)[C@H](NC(=O)[C@H](Cc1ccccc1)NC(=O)[C@H](CCC(=O)O)NC(=O)[C@H](CCC(=O)O)NC(=O)[C@H](CCC(N)=O)NC(=O)[C@H](Cc1c[nH]cn1)NC(=O)[C@@H](NC(=O)[C@H](CCCNC(=N)N)NC(=O)[C@H](CC(=O)O)NC(=O)[C@H](CCCCNC(=O)COCCOCCNC(=O)COCCOCCNC(=O)CC[C@H](NC(=O)CCCCCCCCCCCCCCCCC(=O)O)C(=O)O)NC(=O)C(C)(C)NC(=O)[C@@H](NC(=O)[C@H](CO)NC(=O)[C@H](CC(C)C)NC(=O)[C@H](CC(=O)O)NC(=O)[C@H](CO)NC(=O)[C@@H](NC(=O)[C@H](Cc1ccccc1)NC(=O)[C@@H](NC(=O)CNC(=O)[C@H](CCC(=O)O)NC(=O)C(C)(C)NC(=O)[C@@H](N)Cc1ccc(O)cc1)[C@@H](C)O)[C@@H](C)CC)[C@@H](C)CC)[C@@H](C)CC)C(=O)N[C@@H](CCC(=O)O)C(=O)N[C@@H](Cc1c[nH]c2ccccc12)C(=O)N[C@@H](CC(C)C)C(=O)N[C@@H](CC(C)C)C(=O)N[C@@H](C)C(=O)N[C@@H](CCC(N)=O)C(=O)NCC(=O)N1CCC[C@H]1C(=O)N[C@@H](CO)C(=O)N[C@@H](CO)C(=O)NCC(=O)N[C@@H](C)C(=O)N1CCC[C@H]1C(=O)N1CCC[C@H]1C(=O)N1CCC[C@H]1C(=O)N[C@@H](CO)C(N)=O [SEQ ID NO: 9, H2N-Y-Aib-E-G-T-F-I-S-D-I-S-I-Aib-K[{AEEA}2-gGlu-C18OH]-DRIHQEEFIEWILAQGPSSGAPPPS-NH2] (H-Y[Aib]EGTFISDLSI[Aib]K([AEEA-AEEA-γGlu-C18 diacid])DRIHQEEFIEWLLAQGPSSGAPPPS-NH2) |  | 80 ± 3 | 100 ± 0 | 1.86 ± 0.03 | 80 ± 3 | 100 ± 0 | 1.87 ± 0.03 | > 10 | 82 ± 3 | 100 ± 0 | 1.85 ± 0.04 | 97 ± 4 | 100 ± 0 | 1.73 ± 0.03 |
